Measurements: the supplement of paper PMC10307832

What was measured:
Test in all cases: relative viability (nuclei count vs DMSO), 5 days (fraction); higher = more cells survive
Erlotinib + Foretinib = compound: C#Cc1cccc(Nc2ncnc3cc(OCCOC)c(OCCOC)cc23)c1 [Erlotinib] + COc1cc2c(Oc3ccc(NC(=O)C4(C(=O)Nc5ccc(F)cc5)CC4)cc3F)ccnc2cc1OCCCN1CCOCC1 [Foretinib] (partner 0.25 µM)
Procedure, shortened: (§1)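 Relative viability was taken as the ratio of nuclei in treated wells to nuclei in vehicle wells. Lung cancer cell lines in 1536-well plates received compounds by pin tool one day after seeding, either one drug alone or a fixed anchor-drug dose plus five library-drug doses (not always all listed) in √10 steps. Nuclei were counted on 4× images after 5 days of treatment, and values are medians of duplicate plates.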

AT9283 + Luminespib = compound: O=C(Nc1c[nH]nc1-c1nc2ccc(CN3CCOCC3)cc2[nH]1)NC1CC1 [AT9283] + CCNC(=O)c1noc(-c2cc(C(C)C)c(O)cc2O)c1-c1ccc(CN2CCOCC2)cc1 [Luminespib] (partner 0.01 µM)
Procedure, shortened: as §1

Erlotinib + Navitoclax = compound: C#Cc1cccc(Nc2ncnc3cc(OCCOC)c(OCCOC)cc23)c1 [Erlotinib] + CC1(C)CCC(c2ccc(Cl)cc2)=C(CN2CCN(c3ccc(C(=O)NS(=O)(=O)c4ccc(N[C@H](CCN5CCOCC5)CSc5ccccc5)c(S(=O)(=O)C(F)(F)F)c4)cc3)CC2)C1 [Navitoclax] (partner 0.5 µM)
Procedure, shortened: as §1

AT9283 + Phenformin = compound: O=C(Nc1c[nH]nc1-c1nc2ccc(CN3CCOCC3)cc2[nH]1)NC1CC1 [AT9283] + N=C(N)NC(=N)NCCc1ccccc1 [Phenformin] (partner 250 µM)
Procedure, shortened: as §1

AT9283 + Crizotinib = compound: O=C(Nc1c[nH]nc1-c1nc2ccc(CN3CCOCC3)cc2[nH]1)NC1CC1 [AT9283] + C[C@@H](Oc1cc(-c2cnn(C3CCNCC3)c2)cnc1N)c1c(Cl)ccc(F)c1Cl [Crizotinib] (partner 1 µM)
Procedure, shortened: as §1

Question: How did the relative viability (Erlotinib + Foretinib; first compound 0.02 µM) turn out when COR-L 105 was run?
Answer: The relative viability was 0.81.

Question: What about the relative viability (Erlotinib + Foretinib; first compound 0.2 µM) of the same cell line?
Answer: The relative viability was 0.461.

Question: What about the relative viability (Erlotinib + Foretinib; first compound 0.6325 µM) of the same cell line?
Answer: Its relative viability is 0.487.

Question: What about the relative viability (Erlotinib + Foretinib; first compound 2 µM) of the same cell line?
Answer: Its relative viability is 0.248.

Question: What about the relative viability (AT9283 + Luminespib; first compound 0.003 µM) of the same cell line?
Answer: The relative viability was 1.02.

Question: What about the relative viability (AT9283 + Luminespib; first compound 0.03 µM) of the same cell line?
Answer: Its relative viability is 0.334.

Question: What about the relative viability (AT9283 + Luminespib; first compound 0.09487 µM) of the same cell line?
Answer: Its relative viability is 0.401.

Question: What about the relative viability (AT9283 + Luminespib; first compound 0.3 µM) of the same cell line?
Answer: The relative viability was 0.33.

Question: And the relative viability (Erlotinib + Navitoclax; first compound 0.02 µM)?
Answer: The relative viability was 0.809.

Question: What about the relative viability (Erlotinib + Navitoclax; first compound 0.2 µM) of the same cell line?
Answer: The relative viability was 0.531.

Question: What about the relative viability (Erlotinib + Navitoclax; first compound 0.6325 µM) of the same cell line?
Answer: Its relative viability is 0.364.

Question: And the relative viability (Erlotinib + Navitoclax; first compound 2 µM)?
Answer: Its relative viability is 0.283.

Question: What about the relative viability (AT9283 + Phenformin; first compound 0.003 µM) of the same cell line?
Answer: The relative viability was 0.513.

Question: What about the relative viability (AT9283 + Phenformin; first compound 0.03 µM) of the same cell line?
Answer: Its relative viability is 0.2.

Question: And the relative viability (AT9283 + Phenformin; first compound 0.09487 µM)?
Answer: The relative viability was 0.303.

Question: What about the relative viability (AT9283 + Phenformin; first compound 0.3 µM) of the same cell line?
Answer: The relative viability was 0.223.

Question: What about the relative viability (AT9283 + Crizotinib; first compound 0.003 µM) of the same cell line?
Answer: The relative viability was 0.73.

Question: And the relative viability (AT9283 + Crizotinib; first compound 0.03 µM)?
Answer: The relative viability was 0.326.

Question: And the relative viability (AT9283 + Crizotinib; first compound 0.09487 µM)?
Answer: The relative viability was 0.274.

Question: And the relative viability (AT9283 + Crizotinib; first compound 0.3 µM)?
Answer: Its relative viability is 0.237.

Question: For Calu-6, which relative viability (Erlotinib + Foretinib; first compound 0.02 µM) is on record?
Answer: Its relative viability is 0.94.

Question: What about the relative viability (Erlotinib + Foretinib; first compound 0.2 µM) of the same cell line?
Answer: The relative viability was 0.838.

Question: And the relative viability (Erlotinib + Foretinib; first compound 0.6325 µM)?
Answer: The relative viability was 0.886.

Question: And the relative viability (Erlotinib + Foretinib; first compound 2 µM)?
Answer: Its relative viability is 0.803.

Question: What about the relative viability (Erlotinib + Navitoclax; first compound 0.02 µM) of the same cell line?
Answer: Its relative viability is 0.919.

Question: And the relative viability (Erlotinib + Navitoclax; first compound 0.2 µM)?
Answer: Its relative viability is 0.803.

Question: And the relative viability (Erlotinib + Navitoclax; first compound 0.6325 µM)?
Answer: The relative viability was 0.781.

Question: And the relative viability (Erlotinib + Navitoclax; first compound 2 µM)?
Answer: Its relative viability is 0.759.

Question: And the relative viability (AT9283 + Crizotinib; first compound 0.003 µM)?
Answer: The relative viability was 0.742.

Question: What about the relative viability (AT9283 + Crizotinib; first compound 0.03 µM) of the same cell line?
Answer: Its relative viability is 0.253.

Question: And the relative viability (AT9283 + Crizotinib; first compound 0.09487 µM)?
Answer: Its relative viability is 0.238.

Question: What about the relative viability (AT9283 + Crizotinib; first compound 0.3 µM) of the same cell line?
Answer: The relative viability was 0.291.

Question: Which results are given for ChaGo-K-1?
Answer: relative viability (Erlotinib + Foretinib; first compound 0.02 µM): 0.913; relative viability (Erlotinib + Foretinib; first compound 0.2 µM): 0.836; relative viability (Erlotinib + Foretinib; first compound 0.6325 µM): 0.923; relative viability (Erlotinib + Foretinib; first compound 2 µM): 0.879; relative viability (AT9283 + Luminespib; first compound 0.003 µM): 0.63; relative viability (AT9283 + Luminespib; first compound 0.03 µM): 0.422; relative viability (AT9283 + Luminespib; first compound 0.09487 µM): 0.289; relative viability (AT9283 + Luminespib; first compound 0.3 µM): 0.26; relative viability (Erlotinib + Navitoclax; first compound 0.02 µM): 0.68; relative viability (Erlotinib + Navitoclax; first compound 0.2 µM): 0.981; relative viability (Erlotinib + Navitoclax; first compound 0.6325 µM): 1.25; relative viability (Erlotinib + Navitoclax; first compound 2 µM): 0.777; relative viability (AT9283 + Phenformin; first compound 0.003 µM): 0.476; relative viability (AT9283 + Phenformin; first compound 0.03 µM): 0.341; relative viability (AT9283 + Phenformin; first compound 0.09487 µM): 0.235; relative viability (AT9283 + Phenformin; first compound 0.3 µM): 0.204; relative viability (AT9283 + Crizotinib; first compound 0.003 µM): 0.973; relative viability (AT9283 + Crizotinib; first compound 0.03 µM): 0.416; relative viability (AT9283 + Crizotinib; first compound 0.09487 µM): 0.343; relative viability (AT9283 + Crizotinib; first compound 0.3 µM): 0.387

Question: Which results are given for EBC-1?
Answer: relative viability (Erlotinib + Foretinib; first compound 0.02 µM): 0.0955; relative viability (Erlotinib + Foretinib; first compound 0.2 µM): 0.0898; relative viability (Erlotinib + Foretinib; first compound 0.6325 µM): 0.104; relative viability (Erlotinib + Foretinib; first compound 2 µM): 0.0948; relative viability (Erlotinib + Navitoclax; first compound 0.02 µM): 0.404; relative viability (Erlotinib + Navitoclax; first compound 0.2 µM): 0.466; relative viability (Erlotinib + Navitoclax; first compound 0.6325 µM): 0.363; relative viability (Erlotinib + Navitoclax; first compound 2 µM): 0.34; relative viability (AT9283 + Crizotinib; first compound 0.003 µM): 0.212; relative viability (AT9283 + Crizotinib; first compound 0.03 µM): 0.178; relative viability (AT9283 + Crizotinib; first compound 0.09487 µM): 0.172; relative viability (AT9283 + Crizotinib; first compound 0.3 µM): 0.181

Question: Which results are given for EKVX?
Answer: relative viability (Erlotinib + Foretinib; first compound 0.02 µM): 0.519; relative viability (Erlotinib + Foretinib; first compound 0.6325 µM): 0.267; relative viability (Erlotinib + Foretinib; first compound 2 µM): 0.267; relative viability (AT9283 + Luminespib; first compound 0.003 µM): 0.874; relative viability (AT9283 + Luminespib; first compound 0.03 µM): 0.836; relative viability (AT9283 + Luminespib; first compound 0.09487 µM): 0.555; relative viability (AT9283 + Luminespib; first compound 0.3 µM): 0.307; relative viability (Erlotinib + Navitoclax; first compound 0.02 µM): 0.939; relative viability (Erlotinib + Navitoclax; first compound 0.2 µM): 0.693; relative viability (Erlotinib + Navitoclax; first compound 0.6325 µM): 0.289; relative viability (Erlotinib + Navitoclax; first compound 2 µM): 0.184; relative viability (AT9283 + Phenformin; first compound 0.003 µM): 0.237; relative viability (AT9283 + Phenformin; first compound 0.03 µM): 0.223; relative viability (AT9283 + Phenformin; first compound 0.09487 µM): 0.212; relative viability (AT9283 + Phenformin; first compound 0.3 µM): 0.196; relative viability (AT9283 + Crizotinib; first compound 0.003 µM): 0.878; relative viability (AT9283 + Crizotinib; first compound 0.03 µM): 0.663; relative viability (AT9283 + Crizotinib; first compound 0.09487 µM): 0.371; relative viability (AT9283 + Crizotinib; first compound 0.3 µM): 0.216

Question: EMC-BAC-2 was tested. Which relative viability (Erlotinib + Foretinib; first compound 0.02 µM) did it give?
Answer: The relative viability was 1.05.

Question: What about the relative viability (Erlotinib + Foretinib; first compound 0.2 µM) of the same cell line?
Answer: The relative viability was 0.778.

Question: What about the relative viability (Erlotinib + Foretinib; first compound 0.6325 µM) of the same cell line?
Answer: Its relative viability is 0.877.

Question: What about the relative viability (Erlotinib + Foretinib; first compound 2 µM) of the same cell line?
Answer: The relative viability was 0.898.

Question: What about the relative viability (AT9283 + Luminespib; first compound 0.003 µM) of the same cell line?
Answer: Its relative viability is 1.21.

Question: What about the relative viability (AT9283 + Luminespib; first compound 0.03 µM) of the same cell line?
Answer: The relative viability was 0.358.

Question: And the relative viability (AT9283 + Luminespib; first compound 0.09487 µM)?
Answer: Its relative viability is 0.318.

Question: And the relative viability (AT9283 + Luminespib; first compound 0.3 µM)?
Answer: The relative viability was 0.289.

Question: And the relative viability (Erlotinib + Navitoclax; first compound 0.02 µM)?
Answer: The relative viability was 1.13.

Question: And the relative viability (Erlotinib + Navitoclax; first compound 0.2 µM)?
Answer: The relative viability was 1.04.

Question: And the relative viability (Erlotinib + Navitoclax; first compound 0.6325 µM)?
Answer: The relative viability was 0.974.

Question: And the relative viability (Erlotinib + Navitoclax; first compound 2 µM)?
Answer: The relative viability was 0.906.

Question: What about the relative viability (AT9283 + Phenformin; first compound 0.003 µM) of the same cell line?
Answer: The relative viability was 0.565.

Question: And the relative viability (AT9283 + Phenformin; first compound 0.03 µM)?
Answer: Its relative viability is 0.251.

Question: What about the relative viability (AT9283 + Phenformin; first compound 0.09487 µM) of the same cell line?
Answer: The relative viability was 0.208.

Question: And the relative viability (AT9283 + Phenformin; first compound 0.3 µM)?
Answer: The relative viability was 0.163.

Question: What about the relative viability (AT9283 + Crizotinib; first compound 0.003 µM) of the same cell line?
Answer: The relative viability was 0.67.

Question: And the relative viability (AT9283 + Crizotinib; first compound 0.03 µM)?
Answer: Its relative viability is 0.36.

Question: And the relative viability (AT9283 + Crizotinib; first compound 0.09487 µM)?
Answer: The relative viability was 0.163.

Question: And the relative viability (AT9283 + Crizotinib; first compound 0.3 µM)?
Answer: Its relative viability is 0.151.

Question: Which results are given for EPLC-272H?
Answer: relative viability (Erlotinib + Foretinib; first compound 0.02 µM): 0.821; relative viability (Erlotinib + Foretinib; first compound 0.2 µM): 0.477; relative viability (Erlotinib + Foretinib; first compound 0.6325 µM): 0.534; relative viability (Erlotinib + Foretinib; first compound 2 µM): 0.342; relative viability (AT9283 + Luminespib; first compound 0.003 µM): 0.332; relative viability (AT9283 + Luminespib; first compound 0.03 µM): 0.246; relative viability (AT9283 + Luminespib; first compound 0.09487 µM): 0.133; relative viability (AT9283 + Luminespib; first compound 0.3 µM): 0.149; relative viability (Erlotinib + Navitoclax; first compound 0.02 µM): 1.04; relative viability (Erlotinib + Navitoclax; first compound 0.2 µM): 1.05; relative viability (Erlotinib + Navitoclax; first compound 0.6325 µM): 1.1; relative viability (Erlotinib + Navitoclax; first compound 2 µM): 0.589; relative viability (AT9283 + Phenformin; first compound 0.003 µM): 0.33; relative viability (AT9283 + Phenformin; first compound 0.03 µM): 0.309; relative viability (AT9283 + Phenformin; first compound 0.09487 µM): 0.148; relative viability (AT9283 + Phenformin; first compound 0.3 µM): 0.141; relative viability (AT9283 + Crizotinib; first compound 0.003 µM): 0.951; relative viability (AT9283 + Crizotinib; first compound 0.03 µM): 0.856; relative viability (AT9283 + Crizotinib; first compound 0.09487 µM): 0.431; relative viability (AT9283 + Crizotinib; first compound 0.3 µM): 0.14
